From patent US7767665B2, “1,3-benzothiazinone derivatives and use thereof” (Takeda Pharmaceutical Company Limited, priority 2001, dated 2010) come the findings set out here.

The structures appear in SMILES notation.

As to `CC(C)(C)OC(=O)CS(=O)(=O)c1cccc(-c2nc(=O)c3ccccc3s2)n1` [Example 280, tert-Butyl {[6-(4-oxo-4H-1,3-benzothiazin-2-yl)-2-pyridyl]sulfonyl}acetate], the melting point was in the range of 159 to 160 °C.

Molecule `O=C(O)CS(=O)(=O)c1cccc(-c2nc(=O)c3ccccc3s2)n1` [Example 281, [6-(4-Oxo-4H-1,3-benzothiazin-2-yl)-2-pyridyl]sulfonylacetic acid] came in with a melting point of 192 to 193.5 °C.

As for `NC(=O)CSc1cccc(-c2nc(=O)c3ccccc3s2)n1` [Example 282], the melting point is 256.7 to 257 °C.

For `CSc1nccc(-c2nc(=O)c3ccccc3s2)n1` [Example 284, 2-[2-(Methylthio)-6-pyrimidinyl]-4H-1,3-benzothiazine-4-one], the melting point is 223.5 to 224 °C.

As to `C[S+]([O-])c1nccc(-c2nc(=O)c3ccccc3s2)n1` (centres unmarked) [Example 285, 2-[2-(Methylsulfinyl)-6-pyrimidinyl]-4H-1,3-benzothiazine-4-one], the melting point fell in the range of 250.5 to 252 °C.

`CS(=O)(=O)c1nccc(-c2nc(=O)c3ccccc3s2)n1` [Example 286, 2-[2-(Methylsulfonyl)-6-pyrimidinyl]-4H-1,3-benzothiazine-4-one] gave a melting point of 269.5 to 270 °C.

In the case of `CSc1cncc(-c2nc(=O)c3ccccc3s2)n1` [Example 287, 2-[6-(Methylthio)-2-pyrazinyl]-4H-1,3-benzothiazine-4-one], the melting point lay within 202.4 to 202.9 °C.

The molecule `C[S+]([O-])c1cncc(-c2nc(=O)c3ccccc3s2)n1` (centres unmarked) [Example 288, 2-[6-(Methylsulfinyl)-2-pyrazinyl]-4H-1,3-benzothiazine-4-one] came in with a melting point of 228.5 to 230.5 °C.

`CS(=O)(=O)c1cncc(-c2nc(=O)c3ccccc3s2)n1` [Example 289, 2-[6-(Methylsulfonyl)-2-pyrazinyl]-4H-1,3-benzothiazine-4-one] returned a melting point of 232 to 233 °C.

Molecule `CN(C)c1cncc(-c2nc(=O)c3ccccc3s2)n1` [Example 290, 2-[6-(Dimethylamino)-2-pyrazinyl]-4H-1-benzothiazine-4-one] returned a melting point of 248 to 249 °C.

In the case of `CN(CC(=O)OC(C)(C)C)c1cncc(-c2nc(=O)c3ccccc3s2)n1` [Example 291, tert-Butyl {methyl[6-(4-oxo-4H-1,3-benzothiazin-2-yl)-2-pyrazinyl]amino}acetate], the melting point lay within 189 to 190.5 °C.

As to `CN(CC(=O)O)c1cncc(-c2nc(=O)c3ccccc3s2)n1` [Example 292, {Methyl[6-(4-oxo-1,3-benzothiazin-2-yl)-2-pyrazinyl]amino}acetic acid], the melting point is 283 °C (dec.).

Regarding `CN(CC(=O)OC(C)(C)C)c1nccc(-c2nc(=O)c3ccccc3s2)n1` [Example 293, tert-Butyl {methyl [6-(4-oxo-4H-1,3-benzothiazin-2-yl)-2-pyrimidinyl]amino}acetate], the melting point is 186.5 to 188 °C.

Regarding `CN(CC(=O)O)c1nccc(-c2nc(=O)c3ccccc3s2)n1` [Example 294, {Methyl [6-(4-oxo-4H-1,3-benzothiazin-2-yl)-2-pyrimidinyl]amino}acetic acid], the melting point was 215 °C (dec.).

For `CC(C)(C)OC(=O)CNc1nccc(-c2nc(=O)c3ccccc3s2)n1` [Example 295, tert-Butyl {[6-(4-oxo-4H-1,3-benzothiazin-2-yl)-2-pyrimidinyl]amino}acetate], the melting point was in the range of 247 to 248 °C.

In the case of `O=C(O)CNc1nccc(-c2nc(=O)c3ccccc3s2)n1` [Example 296, {[6-(4-Oxo-4H-1,3-benzothiazin-2-yl)-2-pyrimidinyl]amino}acetic acid], the melting point fell in the range of 283 to 284 °C.

For the molecule `CN(C)CCSc1cncc(-c2nc(=O)c3ccccc3s2)n1` [Example 297], the melting point is 160.5 °C (dec.).

Regarding `CSc1ccnc(-c2nc(=O)c3ccccc3s2)c1` [Example 298, 2-[4-(Methylthio)-2-pyridyl]-4H-1,3-benzothiazine-4-one], the melting point lay within 213 to 214 °C.

In turn, `C[S+]([O-])c1ccnc(-c2nc(=O)c3ccccc3s2)c1` (centres unmarked) [Example 299, 2-[4-(Methylsulfinyl)-2-pyridyl]-4H-1,3-benzothiazine-4-one] yielded a melting point of 205 to 206 °C.

In the case of `CS(=O)(=O)c1ccnc(-c2nc(=O)c3ccccc3s2)c1` [Example 300, 2-[4-(Methylsulfonyl)-2-pyridyl]-4H-1,3-benzothiazine-4-one], the melting point was in the range of 300 to 301 °C.

As for `CC(=O)OCCCc1cccc(-c2nc(=O)c3ccccc3s2)n1` [Example 301, 3-[6-(4-Oxo-4H-1,3-benzothiazin-2-yl)-2-pyridyl]propyl acetate], the melting point lay in the range of 141.3 to 141.6 °C.

In turn, `O=c1nc(-c2cccc(CCCO)n2)sc2ccccc12` [Example 302, 2-[6-(3-Hydroxypropyl)-2-pyridyl]-4H-1,3-benzothiazine-4-one] gave a melting point of 145.5 to 146 °C.

Consider `CCOC(=O)CCCCc1cccc(-c2nc(=O)c3ccccc3s2)n1` [Example 303, Ethyl 5-[6-(4-oxo-4H-1,3-benzothiazin-2-yl)-2-pyridyl]valerate], for which the melting point is 87 to 88 °C.

Molecule `O=C(O)CCCCc1cccc(-c2nc(=O)c3ccccc3s2)n1` [Example 304, 5-[6-(4-Oxo-4H-1,3-benzothiazin-2-yl)-2-pyridyl]valeric acid] had a melting point of 161.9 to 162.3 °C.

`O=c1nc(-c2cccc(CCc3nnn[nH]3)n2)sc2ccccc12` [Example 305, 2-{6-[2-(1H-1,2,3,4-tetrazol-5-yl)ethyl]-2-pyridyl}-4H-1,3-benzothiazine-4-one] displayed a melting point of 156.6 to 157 °C.

For `N#CCCc1cccc(-c2nc(=O)c3ccccc3s2)n1` [Example 306, 3-[6-(4-Oxo-4H-1,3-benzothiazin-2-yl)-2-pyridyl]propionitrile], the melting point was in the range of 156.6 to 157 °C.

Regarding `O=C(O)CCCCCCc1cccc(-c2nc(=O)c3ccccc3s2)n1` [Example 307, 7-[6-(4-Oxo-4H-1,3-benzothiazin-2-yl)-2-pyridyl]heptanoic acid], the melting point lay within 148.6 to 150.6 °C.

`O=C(O)CCc1ccnc(-c2nc(=O)c3ccccc3s2)c1` [Example 308, 3-[2-(4-Oxo-4H-1,3-benzothiazin-2-yl)-4-pyridyl]propionic acid]: the melting point lay in the range of 215.3 to 215.9 °C.

For the molecule `CC(C)(C)OC(=O)CCc1ccnc(-c2nc(=O)c3ccccc3s2)c1` [Example 309, tert-butyl 3-[2-(4-oxo-4H-1,3-benzothiazin-2-yl)-4-pyridyl]propionate], the melting point is 135.8 to 136.7 °C.

`O=C(O)/C=C/c1ccnc(-c2nc(=O)c3ccccc3s2)c1` [Example 310, (E)-3-[2-(4-Oxo-4H-1,3-benzothiazin-2-yl)-4-pyridyl]acrylic acid] returned a melting point of 284.3 to 285 °C.

`CC(C)(C)OC(=O)/C=C/c1ccnc(-c2nc(=O)c3ccccc3s2)c1` [Example 311, tert-Butyl (E)-3-[2-(4-oxo-4H-1,3-benzothiazin-2-yl)-4-pyridyl]acrylate] registered a melting point of 196 to 196.7 °C.

`O=C(O)CNC(=O)CCc1cccc(-c2nc(=O)c3ccccc3s2)n1` [Example 312, ({3-[6-(4-Oxo-4H-1,3-benzothiazin-2-yl)-2-pyridyl]propanoyl}amino)acetic acid] returned a melting point of 219.2 to 219.8 °C.
